From patent publication US6743917B2, “Camptothecin analogs and methods of preparation thereof” (University of Pittsburgh, priority 1993, dated 2004)
Like-named read-outs stand apart in the source and are kept apart here.

Key:
[1] = Equilibrium binding to DMPG small unilamellar vesicles (fluorescence anisotropy titration); conditions: PBS buffer at PH 7.4 and 37° C.
[2] = Kinetics of lactone ring opening in PBS buffer (HPLC); format: physicochemical; conditions: for % Lactone at Equilibrium: PBS; for half-life: pH 7.4
Method: Kinetics of Lactone Ring Opening. […] Mi and Burke (1994), supra.
FIG. 21 summarizes the stability of DB172 in phosphate buffered saline (PBS) buffer, pH 7.4, at physiological temperature. Shown in the figure are plots of lactone fraction as a function of time for DB172 at different concentrations. Drug was added to solution from a concentrated DMSO stock solution such that the volumes of DMSO were very small (less than 0.5%) relative to the volume of water. […] At the more dilute drug concentrations the drug hydrolyzes as previously observed for other camptothecins containing the ^α-hydroxy-^δ-lactone moiety.

[3] = human; for t1/2: blood
[4] = test system: 833K (human teratocarcinoma) cells; assay: Cytotoxicity assay, 833K cells (sulforhodamine B protein content); format: cell-based; conditions: Homo sapiens, read-out: Inhibition of cancer cell growth IC50, 833K
Method: (§1) Cultures were fixed with trichloroacetic acid and then stained for 30 minutes with 0.4% sulforhodamine B dissolved in 1% acetic acid. Unbound dye was removed by acetic acid washes, and the protein-bound dye was extracted with an unbuffered Tris base [tris(hydroxy-methyl)aminomethan] for determination of absorbance at 570 nm in a 96-well microplate reader. The experiments were carried out in duplicate using five to six concentrations of the drugs tested. Data were analyzed via computer software.

[5] = test system: HL-60 (human promyelocytic leukemic) cells; assay: Cytotoxicity assay, HL-60 cells (XTT-microculture tetrazolium assay); format: cell-based; conditions: Homo sapiens, read-out: Inhibition of cancer cell growth IC50, HL-60
Method: The camptothecin derivatives were evaluated for their cytotoxic effects on the growth of HL-60 (human promyelocytic leukemic), 833K (human teratocarcinoma) and DC-3F (hamster lung) cells in vitro. The cells were cultured in an initial density of […]. They were maintained in a 5% CO2 humidified atmosphere at 37° C. in RPMI-1640 media (GIBCO-BRL Grand Island, N.Y.) containing penicillin 100 μ/ml)/streptomycin (100 ^μg/ml) (GIBCO-BRL) and 10% heat inactivated fetal bovine serum. The assay was performed in duplicate in 96-well microplates. The cytotoxicity of the compounds toward HL-60 cells following 72 hr incubation was determined by XTT-microculture tetrazolium assay. Scudiero, D. A., et al., Cancer Res., 48, 4827 (1988), the disclosure of which is incorporated herein by reference. 2′, 3′-bis(-methoxy-4-nitro-5-sulfheny)-5-[(phenylamino)carbonyl]-2H-tetrazolium hydroxide (XTT) was prepared at 1 mg/ml in prewarmed (37° C.) medium without serum. Phenazine methosulfate (PMS) and fresh XTT were mixed together to obtain 0.075 mM PMS-XTT solution (25 ^μl of the stock 5 mM PMS was added per 5 ml of 1 mg/ml XTT). Fifty ^μl of this mixture was added to each well of the cell culture at the end of 72 hr incubation. After incubation at 37° C. for 4 hr., absorbance at 450 nm and 630 nm was measured with a microplate reader (EL340, Bio-Tek Instruments, Inc., Winooski, Vt.).

[6] = test system: DC-3F (hamster lung) cells; assay: Cytotoxicity assay, DC-3F cells (sulforhodamine B protein content); format: cell-based; conditions: Mesocricetus auratus, DC3F, read-out: Inhibition of cancer cell growth IC50, DC-3F
Method: as §1

[7] = Equilibrium binding to DMPC small unilamellar vesicles (fluorescence anisotropy titration); conditions: for KDMPC overall association constant: PBS buffer at PH 7.4 and 37° C.
in vitro = conditions: human
[8] = Kinetics of lactone ring opening in whole human blood (HPLC); conditions: Whole Blood, physiological temperature;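 note: hydrolytic opening of the camptothecin lactone ring followed over time by quantitative C18 reversed-phase HPLC in human whole blood at physiological temperature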
[9] = earlier studies; cited from earlier work
[10] = Kinetics of lactone ring opening in PBS containing HSA (HPLC); conditions: HSA (PBS containing 30 mg/ml HSA)
[11] = Kinetics of lactone ring opening in RBC (HPLC); format: in vitro ADME, human
Text: Kinetics of Lactone Ring Opening. […] Mi and Burke (1994), supra. […] Louis, Mo.) was used.

[12] = HL-60 cells, 72 hr incubation, XTT

For `CCC1(O)C(=O)OCc2c1cc1n(c2=O)Cc2c-1nc1ccc(N)cc1c2[Si](C)(C)C` (stereo in doubt) [Example 8, (20S)-10-amino-7-trimethylsilylcamptothecin], the “KDMPG overall association constant” value [1] was 360 M⁻¹, the “% Lactone at Equilibrium” value [2] was 10.5 +/− 0.3% and the half-life ([2]; buffer) was 31.3 min. The “% Lactone at Equilibrium” value [3] was 12.3 +/− 0.0%, the IC50 ([4]; 833K cells, sulforhodamine B) was 5.7 nM and the IC50 [5, 12] was 0.52 nM. For the same molecule, the IC50 ([6]; DC-3F cells, sulforhodamine B) was 0.72 nM, the “KDMPC overall association constant” value [7] was 820 M⁻¹ and the half-life (in vitro; blood) was 37.6 min.
For `CCc1c2c(nc3ccc(OC(=O)N4CCC(N5CCCCC5)CC4)cc13)-c1cc3c(c(=O)n1C2)COC(=O)[C@]3(O)CC` [IRT, irinotecan, reference compound], the “% Lactone at Equilibrium” value [8] was 21.0%, the “lactone level at equilibrium in whole blood, fold greater than 9-aminocamptothecin” value [3] was “approximately 40 fold” and the IC50 ([4]; 833K cells, sulforhodamine B) was 487 nM. For the same molecule, the IC50 [5, 12] was 270 nM, the IC50 ([6]; DC-3F cells, sulforhodamine B) was 372 nM and the “% lactone at equilibrium in whole human blood” value [9] was 21.0%.
In the case of `CC[C@@]1(O)C(=O)OCc2c1cc1n(c2=O)Cc2cc3c(CN(C)C)c(O)ccc3nc2-1` [Topotecan, topotecan, reference compound], the “% Lactone at Equilibrium” value [8] is reported as 8.61 +/− 0.4%, the “% Lactone at Equilibrium” value ([8]; listed as topotecan) is reported as 8.6% and the “lactone level at equilibrium in whole blood, fold greater than 9-aminocamptothecin” value [3] is reported as 20 fold. For the same molecule, the “% lactone at equilibrium in whole human blood” value [9] was 11.9%, the “% Lactone at Equilibrium” value [10] was 7.06 +/− 0.3% and the “K value for DMPC liposomes, times less than that for camptothecin” value ([7]; relative to camptothecin) was about 10 times. For the same molecule, the half-life (in vitro; whole blood) was 30.9 min.
In the case of `CC[C@@]1(O)C(=O)OCc2c1cc1n(c2=O)Cc2c-1nc1ccccc1c2[Si](C)(C)CCCC#N` [Example 15, (20S)-7-(3-cyanopropyldimethylsilyl)camptothecin], the IC50 ([4]; 833K cells, sulforhodamine B) is reported as 2.7 nM, the IC50 [5, 12] is reported as 0.91 nM and the IC50 ([6]; DC-3F cells, sulforhodamine B) is reported as 2.7 nM.
In the case of `CCC1(O)C(=O)OCc2c1cc1n(c2=O)Cc2c-1nc1ccc(OC(=O)N3CCC(N4CCCCC4)CC3)cc1c2[Si](C)(C)C` (stereo in doubt) [Example 6, (20S) 7-trimethylsilyl-irinotecan], the IC50 ([4]; 833K) is reported as 214 nM, the IC50 ([5]; HL-60, 72 h) is reported as 66 nM and the IC50 [6] is reported as 256 nM.
For `CC[C@@]1(O)C(=O)OCc2c1cc1n(c2=O)Cc2c-1nc1ccc(O)cc1c2[Si](C)(C)CCCN(C)C.Cl` [DB-124, 10-hydroxy-7-(3-dimethylaminopropyldimethylsilyl) camptothecin hydrochloride salt], the “% Lactone at Equilibrium” value [2] was 8.9 +/− 0.3%, the “% Lactone at Equilibrium” value [8] was 31.8 +/− 0.8% and the t1/2 [8] was 63.1 ± 7.4 min. For the same molecule, the “% Lactone at Equilibrium” value [10] was 12.2 +/− 0.3% and the t1/2 [10] was 40.0 ± 0.3 min.
Work on `CC[C@@]1(O)C(=O)OCc2c1cc1n(c2=O)Cc2c-1nc1ccccc1c2[Si](C(C)C)(C(C)C)C(C)C` [Example 12, 20S-7-triisopropylsilylcamptothecin] yielded an IC50 ([4]; 833K cells, sulforhodamine B) of 10700 nM, an IC50 [5, 12] of 1510 nM and an IC50 ([6]; DC-3F cells, sulforhodamine B) of 1040 nM.
For `CCc1c2c(nc3ccc(O)cc13)-c1cc3c(c(=O)n1C2)COC(=O)[C@]3(O)CC` [SN-38, 10-hydroxy-7-ethylcamptothecin, reference compound], the “KDMPG overall association constant” value [1] was 160 M⁻¹, the “% Lactone at Equilibrium” value [8] was 19.5% and the “% Lactone at Equilibrium” value ([8]; listed as SN 38) was 20.2 +/− 1.9%. For the same molecule, the t1/2 [3] was 50.7 ± 1.4 min, the “% lactone at equilibrium in whole human blood” value [9] was 19.5% and the “KDMPC overall association constant” value [7] was 260 M⁻¹.
With `CC[C@@]1(O)C(=O)OCc2c1cc1n(c2=O)Cc2c-1nc1ccc(O)cc1c2[Si](C)(C)CCCCl` [DB-158, (20S)-10-hydroxy-7-(3-chloropropyldimethylsilyl) camptothecin] the “% Lactone at Equilibrium” value ([11]; RBC) was 50.2 +/− 1.7%, the t1/2 ([11]; RBC) was 67.7 ± 8.5 min and the “% Lactone at Equilibrium” value [2] was 11.3 +/− 1.8%. The “% Lactone at Equilibrium” value [8] was 17.8 +/− 2.0%, the t1/2 [8] was 65.3 ± 9.0 min and the “% Lactone at Equilibrium” value [10] was 17.2 +/− 0.7%. For the same molecule, the t1/2 [10] was 48.0 ± 0.9 min.
For `CC[C@@]1(O)C(=O)OCc2c1cc1n(c2=O)Cc2c-1nc1ccccc1c2[Si](C)(C)CCCCl` [Example 16, (20S)-7-(3-halopropyldimethylsilyl) camptothecin], the IC50 ([4]; 833K cells, sulforhodamine B) was 5.4 nM, the IC50 [5, 12] was 2.1 nM and the IC50 ([6]; DC-3F cells, sulforhodamine B) was 2.3 nM.
For `CC[C@@]1(O)C(=O)OCc2c1cc1n(c2=O)Cc2c-1nc1ccccc1c2[Si](C)(C)CCCCl` [DB-148, (20S)-7-(3-chloropropyldimethylsilyl)camptothecin], the “% Lactone at Equilibrium” value ([11]; RBC) was 43.4 +/− 0.8%, the t1/2 ([11]; RBC) was 59.7 ± 2.9 min and the “% Lactone at Equilibrium” value [2] was 12.0 +/− 0.5%. For the same molecule, the “% Lactone at Equilibrium” value [8] was 2.2 +/− 3.6%, the t1/2 [8] was 85.6 ± 9.2 min and the “% Lactone at Equilibrium” value [10] was 2.7 +/− 0.2%. The t1/2 [10] was 16.0 ± 0.2 min.
Work on `CCC1(O)C(=O)OCc2c1cc1n(c2=O)Cc2c-1nc1cc(N)ccc1c2[Si](C)(C)C` (stereo in doubt) [Example 9, (20S)-11-amino-7-trimethylsilylcamptothecin] yielded an IC50 ([4]; 833K cells, sulforhodamine B) of 7.4 nM, an IC50 [5, 12] of 2.6 nM and an IC50 ([6]; DC-3F cells, sulforhodamine B) of 6.4 nM.
With `CCC1(O)C(=O)OCc2c1cc1n(c2=O)Cc2c-1nc1ccccc1c2[Si](C)(C)C(C)(C)C` (stereo in doubt) [Example 2, (20S)-7-tert-butyldimethylsilylcamptothecin] the “% Lactone at Equilibrium” value ([11]; human) was 59.4 +/− 0.0%, the half-life ([11]; human) was 79.4 min and the “% Lactone at Equilibrium” value [2] was 12.2 +/− 0.4%. The half-life ([2]; buffer) was 27.9 min, the “% Lactone at Equilibrium” value [3] was 1.0 +/− 0.1% and the IC50 ([4]; 833K cells, sulforhodamine B) was 1.2 nM. For the same molecule, the IC50 [5, 12] was 0.12 nM, the IC50 ([6]; DC-3F cells, sulforhodamine B) was 2.9 nM and the half-life (in vitro; blood) was 71.9 min.
In the case of `CC[C@@]1(O)C(=O)OCc2c1cc1n(c2=O)Cc2c-1nc1ccccc1c2[Si](C)(C)CCCN(C)C.Cl` [DB-104, 7-(3-dimethylaminopropyldimethylsilyl) camptothecin hydrochloride salt], the “% Lactone at Equilibrium” value [2] is reported as 7.5 +/− 0.2%, the t1/2 ([2]; buffer) is reported as 24.1 ± 1.0 min and the t1/2 [3] is reported as 77.2 ± 1.8 min.
`CCC1(O)C(=O)OCc2c1cc1n(c2=O)Cc2c-1nc1ccc(O)cc1c2[Si](C)(C)C` (stereo in doubt) [Example 5, (20S)-10-hydroxy-7-trimethylsilylcamptothecin] gave an IC50 ([4]; 833K cells, sulforhodamine B) of 7 nM, an IC50 [5, 12] of 2.6 nM and an IC50 ([6]; DC-3F cells, sulforhodamine B) of 6.9 nM.
`CC[C@@]1(O)C(=O)OCc2c1cc1n(c2=O)Cc2c-1nc1ccccc1c2[Si](CC)(CC)CC` [Example 13, (20S)-7-Triethylsilylcamptothecin] showed an IC50 ([4]; 833K cells, sulforhodamine B) of 122 nM, an IC50 [5, 12] of 31.9 nM and an IC50 ([6]; DC-3F cells, sulforhodamine B) of 57.1 nM.
